For experiment [1], the system named is MOLT4.1 (WT) cell line. As to the kind of experiment: Cell viability analysis (CellTiter-Glo 2.0), MOLT4.1. As to conditions: MOLT4.1, 72 hr. In kind it is cell-based. The protocol: (§1) CellTiter-Glo® 2.0 Assay was purchased from Promega (Medison, Wis., USA). MOLT4.1 (WT) cell line was purchased from ATCC (Manassas, Va., USA) and MOLT4.2 (CRBN Knock Out) cell line was generated in house. Cell culture flasks and 384-well microplates were acquired from VWR (Radnor, Pa., USA).
(§2) MOLT4.1 and MOLT4.2 cell viability was determined based on quantification of ATP using CellTiter-Glo® 2.0 luminescent Assay kit, which signals the presence of metabolically-active cells. Briefly, MOLT4.1 and MOLT4.2 cells were seeded into 384-well plates at a cell density of 750 cells per well, the plates were kept at 37° C. with 5% CO2 overnight. On the following day, test compounds were added to the cells from a top concentration of 1 μM with 10 points, half log titration in duplicates. The cells treated in the absence of the test compound were the negative control and the cells treated in the absence of CellTiter-Glo® 2.0 were the positive control. At the same day of compound treatment, CellTiter-Glo® 2.0 was added to a plate with cells treated in the absence of the test compound to establish Cytostatic control value (Cro). Cells treated with the test compound were incubated for 72 hr. CellTiter-Glo reagent was then added to the cells and Luminescence was acquired on EnVision™ Multilabel Reader (PerkinElmer, Santa Clara, Calif., USA).
(§3) MOLT4.1 and MOLT4.2 cell viability was determined based on quantification of ATP using CellTiter-Glo® 2.0 luminescent Assay kit, which signals the presence of metabolically-active cells. Briefly, MOLT4.1 and MOLT4.2 cells were seeded into 384-well plates at a cell density of 750 cells per well, the plates were kept at 37° C. with 5% CO2 overnight. On the following day, test compounds were added to the cells from a top concentration of 1 μM with 10 points, half log titration in duplicates. […] CellTiter-Glo reagent was then added to the cells and Luminescence was acquired on EnVision™ Multilabel Reader (PerkinElmer, Santa Clara, Calif., USA).
A general note: In ATP-based viability assays light output follows the ATP content of the culture.

In experiment [2] the target is CRBN-DDB1 (Homo sapiens (Human), UniProt Q96SW2). The experiment is described as follows: CRBN-DDB1 fluorescence polarization (FP) binding assay. As to conditions: displacement of Thalidomide-Alexa Fluor or Pomalidomide-fluorescein probe. On the procedure:
Measuring compound ligand binding to CRBN-DDB1 was carried out using an established sensitive and quantitative in vitro fluorescence polarization (FP) based binding assay. […] Compounds were dispensed from serially diluted DMSO stock into black 384-well compatible fluorescence polarization plates using an Echo acoustic dispenser. Compound binding to CRBN-DDB1 was measured by displacement of either a (−)-Thalidomide-Alexa Fluor® or Pomalidomide-fluorescein conjugated probe dye. […] Matching control wells excluding CRBN-DDB1 were used to correct for background fluorescence. Plates were read on an Envision plate reader with appropriate FP filter sets. The corrected S (perpendicular) and P (parallel) values were used to calculate fluorescence polarization (FP) with the following equation: FP=1000*(S−G*P)/(S+G*P).

In experiment [3] the target is BRD4 BD1 (Homo sapiens (Human), UniProt O60885). As to the kind of experiment: HiBit assay, BRD4 BD1 degradation analysis. Format: cell-based. As to conditions: BRD4_BD1, 293T.29 cells, 3 hr. The protocol:
DMEM no-phenol red medium and fetal bovine serum (FBS) were purchased from Gibco (Grand Island, N.Y., USA). Nano-Glo® HiBiT Lytic Assay System was purchased from Promega (Medison, Wis., USA). 293T.29 (HiBiT-BRD4 BD1) cell line was generated in house, ectopically expressing BRD4 BD1 domain with HiBiT fusion tag. Cell culture flasks and 384-well microplates were acquired from VWR (Radnor, Pa., USA).
BRD4 BD1 degradation was determined based on quantification of luminescent signal using Nano-Glo® HiBiT Lytic Assay kit. Test compounds were added to the 384-well plate from a top concentration of 1 μM with 11 points, half log titration in quadruplicates. 293T.29 cells were added into 384-well plates at a cell density of 15000 cells per well. The plates were kept at 37° C. with 5% CO2 for 3 hours. The cells treated in the absence of the test compound were the negative control and the cells treated with 30 nM of a known BRD4 degrader were the positive control. After 3-hour incubation, Nano-Glo® HiBiT Lytic Assay reagents were added to the cells. Luminescence was acquired on EnVision™ Multilabel Reader (PerkinElmer, Santa Clara, Calif., USA).
Background: HiBiT is a short tag that completes a luciferase, so light tracks the accessible tagged protein.

For experiment [4], the system named is MOLT4.2 (CRBN Knock Out) cell line. The experiment is described as follows: Cell viability analysis (CellTiter-Glo 2.0), MOLT4.2. Format: cell-based. As to conditions: MOLT4.2, 72 hr. The protocol: as §1, §2, §3

Sequence of CRBN-DDB1 (Q96SW2 whole entry): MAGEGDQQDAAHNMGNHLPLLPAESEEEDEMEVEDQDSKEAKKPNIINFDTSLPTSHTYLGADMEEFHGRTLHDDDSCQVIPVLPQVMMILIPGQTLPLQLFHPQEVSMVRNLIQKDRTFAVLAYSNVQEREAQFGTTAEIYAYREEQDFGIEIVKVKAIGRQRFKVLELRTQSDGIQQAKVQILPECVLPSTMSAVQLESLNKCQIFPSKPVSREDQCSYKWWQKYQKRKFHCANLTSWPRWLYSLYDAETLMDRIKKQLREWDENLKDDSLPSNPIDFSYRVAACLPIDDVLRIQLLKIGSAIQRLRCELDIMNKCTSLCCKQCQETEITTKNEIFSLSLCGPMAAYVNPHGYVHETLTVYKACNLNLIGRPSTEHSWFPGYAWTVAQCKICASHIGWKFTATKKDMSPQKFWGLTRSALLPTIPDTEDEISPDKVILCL
Sequence of CRBN-DDB1 (Q16531 whole entry partner): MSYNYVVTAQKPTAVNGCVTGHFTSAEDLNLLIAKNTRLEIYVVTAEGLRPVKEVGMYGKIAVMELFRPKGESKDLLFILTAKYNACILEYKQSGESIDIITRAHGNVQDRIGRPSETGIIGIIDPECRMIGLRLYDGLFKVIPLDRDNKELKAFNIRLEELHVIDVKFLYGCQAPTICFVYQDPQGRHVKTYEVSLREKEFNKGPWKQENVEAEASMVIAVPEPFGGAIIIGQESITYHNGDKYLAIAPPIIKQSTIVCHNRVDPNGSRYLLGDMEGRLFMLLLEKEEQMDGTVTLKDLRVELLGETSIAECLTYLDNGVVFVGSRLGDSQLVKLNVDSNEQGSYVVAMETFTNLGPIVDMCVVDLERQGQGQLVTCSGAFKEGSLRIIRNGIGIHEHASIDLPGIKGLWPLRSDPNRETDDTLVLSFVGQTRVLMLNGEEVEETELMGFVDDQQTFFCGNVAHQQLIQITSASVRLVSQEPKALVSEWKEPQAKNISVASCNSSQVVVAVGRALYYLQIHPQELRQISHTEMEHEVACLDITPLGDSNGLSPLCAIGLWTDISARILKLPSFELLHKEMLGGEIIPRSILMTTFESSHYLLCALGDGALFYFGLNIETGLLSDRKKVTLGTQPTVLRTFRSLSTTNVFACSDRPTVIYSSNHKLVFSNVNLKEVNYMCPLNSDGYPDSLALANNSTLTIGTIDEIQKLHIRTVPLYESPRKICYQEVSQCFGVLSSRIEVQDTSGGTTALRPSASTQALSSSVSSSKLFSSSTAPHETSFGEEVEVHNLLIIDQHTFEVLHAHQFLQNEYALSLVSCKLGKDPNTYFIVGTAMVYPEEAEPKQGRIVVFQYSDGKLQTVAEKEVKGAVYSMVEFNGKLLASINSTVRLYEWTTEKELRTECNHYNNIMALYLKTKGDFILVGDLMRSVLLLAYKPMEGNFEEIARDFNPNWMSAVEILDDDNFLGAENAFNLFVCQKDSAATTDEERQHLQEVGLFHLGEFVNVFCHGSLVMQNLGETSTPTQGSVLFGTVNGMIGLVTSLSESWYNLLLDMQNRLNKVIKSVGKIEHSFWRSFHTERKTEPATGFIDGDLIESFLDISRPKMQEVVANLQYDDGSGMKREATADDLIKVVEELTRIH

`Cc1sc2c(c1C)C(c1ccc(Cl)cc1)=N[C@@H](CC(=O)NCCCCCCCC(=O)Nc1ccc3c(C4CCC(=O)NC4=O)nn(C)c3c1)c1nnc(C)n1-2` (stereo partly drawn) [Degronimer 1, 8-(2-((S)-4-(4-chlorophenyl)-2,3,9-trimethyl-6H-thieno[3,2-f][1,2,4]triazolo[4,3-a][1,4]diazepin-6-yl)acetamido)-N-(3-(2,6-dioxopiperidin-3-yl)-1-methyl-1H-indazol-6-yl)octanamide]: in experiment [1], the Emax is 0 to 50%; the GI50 (as a rule, the concentration at which growth is held to half of that of the control) fell in the range of 0.1 to 1 µM; the “LD50 (nM)” value is “+ (>1 μM = +)”. Moreover, the dissociation constant Kd (commonly the constant that tells how readily two partners part at equilibrium) in experiment [2] (Table 2) is less than 10 µM. The DC50 (commonly the concentration giving 50% degradation) in experiment [3] was more than 0.83 µM. Besides, in experiment [4], the Emax is more than 50%, the GI50 was more than 1 µM and the “LD50 (nM)” value is “+ (>1 μM = +)”.

`O=C1CCC(c2ncc3ccccn23)C(=O)N1` (stereo not shown) [Compound 28, 3-Imidazo[1,5-a]pyridin-3-yl-piperidine-2,6-dione] came in with a Kd in experiment [2] of less than 10 µM.

In experiment [2], `Cn1c(=O)oc2ccc(C3CCC(=O)NC3=O)cc21` (stereo not shown) [Compound 49, 3-(3-Methyl-2-oxo-2,3-dihydro-benzooxazol-5-yl)-piperidine-2,6-dione] showed a Kd of 10 to 50 µM.

In experiment [2], `O=C1CCC(C(=O)Nc2ccccc2)C(=O)N1` (stereo not shown) [Compound 14] displayed a Kd of 50 to 100 µM.

In the case of `CN(C(=O)C1CCC(=O)NC1=O)c1ccccn1` (stereo not shown) [Compound 20], the dissociation constant (Kd) in experiment [2] is more than 100 µM.

`Cn1ccc2ccc(C3CCC(=O)NC3=O)nc21` (stereo not shown) [Compound 35, 3-(1-Methyl-1H-pyrrolo[2,3-b]pyridin-6-yl)-piperidine-2,6-dione] gave a Kd in experiment [2] of 10 to 50 µM.

These data come from patent publication US10849982B2, “C3-carbon linked glutarimide degronimers for target protein degradation” (C4 Therapeutics, Inc., priority 2016, dated 2020).
